Test results from patent US11707477B2, “Formulation comprising a gemcitabine-prodrug” (NuCana plc, priority 2014, dated 2023).
Where “and” joins values, the source holds several entries; their conditions need not be identical. Equal entries are not always repeated.

Assays:
[1] = Solubility in a range of solvents on dilution; type: physicochemical
Procedure: The protocol adopted was as follows:
A small volume, 1-2 mL, of each solvent system was prepared and a weight of the compound in question was added. The solutions were stirred for approximately 4 hours and then […] membrane filtered. The concentration of the compound in question in the filtrate was then determined by HPLC assay.

[2] = Effect of aqueous dilution on DMA solubility and physical stability; type: physicochemical
Excerpt: Table 2 gives the effect of aqueous dilution on DMA solubility

[3] = Clinical testing of 80:20 DMA:0.9% saline formulation; type: in vivo
[4] = Preferred formulation system: stability; type: physicochemical
Procedure: The final administration formulation is then prepared by diluting this second formulation to the desired concentration with saline.

Solubility in water = type: physicochemical; details: regardless of salt content or pH
[5] = DMA 45.8 mg/mL, 1:3 with 0.9% saline containing […] Tween 80
[6] = DMA 45.8 mg/mL, 1:4.5 with 0.9% saline containing […] Tween 80
[7] = DMA 55.0 mg/mL, 1:3 with 0.9% saline containing […] Tween 80
[8] = DMA 73.3 mg/mL, 1:3 with 0.9% saline containing […] Tween 80
[9] = DMA […] mg/mL, Solvent:Saline (0.9%) 1:3
[10] = PEG 400 87.7 mg/mL, 1:1 glucose
[11] = PEG 400 87.7 mg/mL, 1:2 glucose
[12] = PEG 400, 45.6 mg/mL, 1:1.5 with 0.9% saline containing […] Tween 80
[13] = PEG 400, 45.6 mg/mL, 1:2 with 0.9% saline containing […] Tween 80
[14] = PEG 400, 45.6 mg/mL, 1:2.5 with 0.9% saline containing […] Tween 80
[15] = PEG 400, 91.2 mg/mL, 1:2 with 0.9% saline containing […] Tween 80
[16] = PEG 400, 91.2 mg/mL, Solvent:Saline (0.9%) 1:1
[17] = PEG 400, 91.2 mg/mL, Solvent:Saline (0.9%) 1:2

With `C[C@H](NP(=O)(OC[C@H]1O[C@@H](n2ccc(N)nc2=O)C(F)(F)C1O)Oc1ccccc1)C(=O)OCc1ccccc1` (stereo partly drawn) [NUC-1031, 2′-Deoxy-2′,2′-difluoro-D-cytidine-5′-O-[phenyl (benzoxy-L-alaninyl)]phosphate] the Appearance [1, 5] was “Clear”, the “NUC-1031 mg/mL HPLC assay filtrate” value [1, 5] was 11.5 mg/mL and the Appearance ([1]; DMA 45.8 mg/mL, 1:3.5 with 0.9% saline containing […] Tween 80) was “Clear”. For the same compound, the “NUC-1031 mg/mL HPLC assay filtrate” value ([1]; DMA 45.8 mg/mL, 1:4 with 0.9% saline containing […] Tween 80) was 8.4 mg/mL, the Appearance ([1]; DMA 45.8 mg/mL, 1:4 with 0.9% saline containing […] Tween 80 (precipitates >30 min, stirring precipitate dissolves)) was “Initially clear” and the Appearance [1, 6] was “Slightly turbid”. For the same compound, the “NUC-1031 mg/mL HPLC assay filtrate” value [1, 6] was 7.2 mg/mL, the Appearance [1, 7] was “Slightly turbid” and the “NUC-1031 mg/mL HPLC assay filtrate” value [1, 7] was 13.9 mg/mL. For the same compound, the Appearance [1, 8] was “Precipitation”, the “NUC-1031 mg/mL HPLC assay filtrate” value [1, 8] was 14.7 mg/mL and the Appearance ([1]; DMA 92.5 mg/mL, 1:1 glucose) was “Clear”. The “Evidence of further precipitation on storage of filtrate at RT >24 h” value (shortened to “Evidence of further precipitation”) ([1]; DMA 92.5 mg/mL, 1:1 glucose) was “No”, the “NUC-1031 mg/mL HPLC assay filtrate” value ([1]; DMA 92.5 mg/mL, 1:1 glucose) was 47.3 mg/mL and the Appearance ([1]; DMA 92.5 mg/mL, 1:2 glucose) was “Slightly turbid”. For the same compound, the “Evidence of further precipitation” value ([1]; DMA 92.5 mg/mL, 1:2 glucose) was “Yes”, the “NUC-1031 mg/mL HPLC assay filtrate” value ([1]; DMA 92.5 mg/mL, 1:2 glucose) was 29.7 mg/mL and the Appearance [1, 9] was “Precipitation”. The “NUC-1031 mg/mL HPLC assay filtrate” value [1, 9] was 14.8 mg/mL, the “NUC-1031 mg/mL HPLC assay filtrate” value ([1]; DMA […], 1:2 with 0.9% saline containing […] Tween 80) was 30.9 mg/mL and the “NUC-1031 mg/mL HPLC assay filtrate” value ([1]; DMA […], 1:3 with 0.9% saline containing […] Tween 80) was 15.2 mg/mL. The “NUC-1031 mg/mL HPLC assay filtrate” value ([1]; DMA […], Solvent:Saline (0.9%) 1:1) was 47.0 mg/mL, the “NUC-1031 mg/mL HPLC assay filtrate” value ([1]; DMA […], Solvent:Saline (0.9%) 1:2) was 30.2 mg/mL and the Appearance ([1]; NMP 115.0 mg/mL, 1:1 glucose) was “Slightly turbid”. The “Evidence of further precipitation” value ([1]; NMP 115.0 mg/mL, 1:1 glucose) was “No”, the “NUC-1031 mg/mL HPLC assay filtrate” value ([1]; NMP 115.0 mg/mL, 1:1 glucose) was 58.5 mg/mL and the Appearance ([1]; NMP 115.0 mg/mL, 1:1 saline) was “Slightly turbid”. The “Evidence of further precipitation” value ([1]; NMP 115.0 mg/mL, 1:1 saline) was “No”, the “NUC-1031 mg/mL HPLC assay filtrate” value ([1]; NMP 115.0 mg/mL, 1:1 saline) was 60.0 mg/mL and the Appearance ([1]; NMP 115.0 mg/mL, 1:2 glucose) was “Slightly turbid”. The “Evidence of further precipitation” value ([1]; NMP 115.0 mg/mL, 1:2 glucose) was “Yes”, the “NUC-1031 mg/mL HPLC assay filtrate” value ([1]; NMP 115.0 mg/mL, 1:2 glucose) was 39.6 mg/mL and the Appearance ([1]; NMP 115.0 mg/mL, 1:2 saline) was “Slightly turbid”. For the same compound, the “Evidence of further precipitation” value ([1]; NMP 115.0 mg/mL, 1:2 saline) was “Yes”, the “NUC-1031 mg/mL HPLC assay filtrate” value ([1]; NMP 115.0 mg/mL, 1:2 saline) was 40.5 mg/mL and the “evidence of precipitation after dilution” value ([1]; NMP and DMA solutions, dilution 1:1 with water or saline) was “did not show any evidence of precipitation”. For the same compound, the Appearance [1, 10] was “Slightly turbid”, the “Evidence of further precipitation” value [1, 10] was “Yes” and the “NUC-1031 mg/mL HPLC assay filtrate” value [1, 10] was 46.1 mg/mL. The Appearance [1, 11] was “Turbid”, the “Evidence of further precipitation” value [1, 11] was “No” and the “NUC-1031 mg/mL HPLC assay filtrate” value [1, 11] was 17.4 mg/mL. The Appearance [1, 12] was “Clear”, the “Evidence of further precipitation” value [1, 12] was “Yes” and the Appearance [1, 13] was “Clear”. The “Evidence of further precipitation” value [1, 13] was “Yes”, the Appearance [1, 14] was “Precipitation,” and the “Evidence of further precipitation” value [1, 14] was “Yes”. For the same compound, the “NUC-1031 mg/mL HPLC assay filtrate” value [1, 14] was 10.5 mg/mL, the Appearance [1, 15] was “Slightly turbid” and the “Evidence of further precipitation” value [1, 15] was “Yes”. For the same compound, the “NUC-1031 mg/mL HPLC assay filtrate” value [1, 15] was 18.8 mg/mL, the Appearance [1, 16] was “Clear” and the “Evidence of further precipitation” value [1, 16] was “Yes”. The Appearance [1, 17] was “Precipitation”, the “Evidence of further precipitation” value [1, 17] was “Yes” and the “NUC-1031 mg/mL HPLC assay filtrate” value [1, 17] was 16.2 mg/mL. The Assay ([2]; 50:50 DMA:0.9% Saline) was 66 mg/mL, the “Precipitation > 24 hours” value ([2]; 50:50 DMA:0.9% Saline) was “Yes” and the Assay ([2]; 60:40 DMA:0.9% Saline) was 293 mg/mL. The “Precipitation > 24 hours” value ([2]; 60:40 DMA:0.9% Saline) was “Yes”, the Assay ([2]; 70:30 DMA:0.9% Saline) was 339 mg/mL and the “Precipitation > 24 hours” value ([2]; 70:30 DMA:0.9% Saline) was “Yes”. For the same compound, the “Precipitation (2 weeks)” value ([2]; 80:20 DMA in 0.9% Saline, assay 270 mg/ml) was “Yes”, the “Precipitation (2 weeks)” value ([2]; 80:20 DMA in 0.9% Saline, assay 272 mg/ml) was “No” and the “Precipitation (2 weeks)” value ([2]; 80:20 DMA in 0.9% Saline, assay 315 mg/ml) was “Yes”. The Assay ([2]; 80:20 DMA:0.9% Saline) was 386 mg/mL, the “Precipitation > 24 hours” value ([2]; 80:20 DMA:0.9% Saline) was “Yes” and the “Precipitation (2 weeks)” value ([2]; 85:15 DMA in 0.9% Saline, assay 338 mg/ml) was “No”. The Assay ([2]; 90:10 DMA:0.9% Saline) was 483 mg/mL, the “Precipitation > 24 hours” value ([2]; 90:10 DMA:0.9% Saline) was “No” and the Assay ([2]; 95:5 DMA:0.9% Saline) was 518 mg/mL. The “Precipitation > 24 hours” value ([2]; 95:5 DMA:0.9% Saline) was “No”, the Assay ([2]; 100% DMA) was 592 mg/mL and the “Precipitation > 24 hours” value ([2]; 100% DMA) was “No”. The Assay ([2]; Table 2a, 80:20 DMA solution in 0.9% Saline) was 304 mg/mL and 272 mg/mL and 315 mg/mL and 270 mg/mL, the Assay ([2]; Table 2a, 85:15 DMA solution in 0.9% Saline) was 338 mg/mL and the “treatment outcome in the clinical study” value ([3]; 250 mg NUC-1031 in 80:20 DMA:0.9% saline solution, 5 ml vial) was “successful treatment”. The tolerability of injection ([3]; 250 mg NUC-1031 in 80:20 DMA:0.9% saline, needed to be administered by a central line) was “pain on injection”, the “stability for storage and transport” value ([4]; 250 mg/mL in 80:20 (by volume) DMA:0.9% saline) was “sufficiently stable for long term storage and transport” and the osmolarity ([4]; 4, 8 and 10 mg/mL in 0.45% and 0.9% saline) was “acceptable for peripheral administration”. For the same compound, the “time stable to precipitation and to degradation after dilution” value ([4]; 4, 8 and 10 mg/mL, 0.45% and 0.9% saline, pH 4.5, 6.0 and 7.0, not stirred) was 48 h and the solubility in water (Solubility in water) was “essentially insoluble in water”.
